Source: patent US12624019B2, “Indazole derivative, and preparation method therefor and use thereof” (Leadingtac Pharmaceutical (Shaoxing) Co., Ltd., priority 2020, dated 2026)

Legend:
[1] = biological target: T1, IRAK4 kinase protein in THP-1 cells (Homo sapiens, UniProt Q9NWZ3); experiment: Degradation of IRAK4 in THP-1 cells by Western Blot; format: cell-based; details: 24 hours
T1 construct: endogenous in cells; host or cells: THP-1 cells
T1 sequence (Q9NWZ3 1-460): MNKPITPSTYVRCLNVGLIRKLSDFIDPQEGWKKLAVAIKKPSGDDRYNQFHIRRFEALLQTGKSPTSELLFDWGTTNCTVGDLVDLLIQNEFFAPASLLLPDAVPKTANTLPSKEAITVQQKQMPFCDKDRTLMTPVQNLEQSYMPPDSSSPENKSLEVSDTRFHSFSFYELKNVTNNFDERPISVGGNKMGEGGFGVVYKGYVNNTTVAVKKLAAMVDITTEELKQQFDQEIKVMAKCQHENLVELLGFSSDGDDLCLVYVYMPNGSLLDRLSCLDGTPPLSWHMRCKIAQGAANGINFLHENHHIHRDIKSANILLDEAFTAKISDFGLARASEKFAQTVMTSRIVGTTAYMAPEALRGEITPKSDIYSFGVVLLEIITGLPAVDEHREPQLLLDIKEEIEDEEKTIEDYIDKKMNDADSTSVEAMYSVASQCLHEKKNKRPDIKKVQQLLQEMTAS

[2] = biological target: T2, IKZF3 (Homo sapiens, UniProt Q96SW2+Q9UKT9); experiment: Degradation of IKZF3 in L363 cells by Western blot; format: cell-based; details: compound 1000 nM, 16 hours
T2 construct: endogenous in cells; host or cells: L363 cells
Description: The 24-well cell culture plate was inoculated with 0.95 mL L363 cells (Nanjing Co-bioer) per well with a cell density of 6×10^5 cells/well. The cell plate was placed in a 5% carbon dioxide incubator and cultured at 37° C. for 8 hours, then 50 μL of compound solution was added. The final concentration of the compound was 1000 nM. After continuing to culture for 16 hours, the cells were collected into a 1.5 mL centrifuge tube and centrifuged at 3000 rpm and 4° C. for 5 minutes. Cell precipitation was washed twice with 1×DPBS, resuspended cells were lysed with 100 μL lysate (cell lysate was Western and IP cell lysate (Beyotime), supplemented with 1 mM mixture of phenylmethylsulfonyl fluoride and protease inhibitor (Beyotime)), left on ice for 30 minutes, then centrifuged at 14000 g at 4° C. for 10 minutes, and the supernatant was taken to detect IKZF1 and IKZF3 protein level by Western blot.
The total protein concentration in the supernatant of cell lysis was determined by BCA protein quantitative kit (Tiangen). According to the concentration of total protein detected by BCA, the supernatant was adjusted to […] with PBS and 5×SDS-PAGE protein loading buffer (Beyotime), bathed in water at 100° C. for 10 minutes, then placed in ice bath for 5 minutes, centrifuged at 14000 g and 4° C. for 5 minutes, and then collected as WB loading sample. Prefabricated glue (KeyGEN) was used for protein electrophoresis with a loading amount of 10 μL (total protein 2 μg). After Tris-MOPS-SDS electrophoresis solution (Adamas), 120V constant pressure electrophoresis was performed. After electrophoresis, the protein on the adhesive strip was transferred to PVDF membrane with a constant current of […] for 50 minutes. After the membrane was transferred, the membrane was incubated in 5% bovine serum albumin solution for 2 hours at room temperature. After blocking, PVDF membranes were incubated with IKZF1 primary antibody (CST) and IKZF3 primary antibody (Abcam) overnight at 4°, the membranes were washed with TBST buffer (2.4 g Tris, 8.8 g NaCl, 1.5 mL Tween 20, pH adjusted to 7.4, constant volume to 1 L) for 30 minutes, incubated with secondary antibody (Abcam) for 2 hours at room temperature, finally incubated with Clarity Western ECL Substrate (BIO-RAD) for 5 minutes for luminescence development, chemiluminescence imaging system (Clinx, chemiScope 6200 Touch) was used for development and protein mapping photography. The protein map was analyzed by Clinx chemiluminescence analysis software for grayscale values. Using the formula: grayscale correction value=(target protein grayscale value/corresponding internal reference grayscale value)×10^3, the grayscale correction value of each sample was calculated. The degradation rate was calculated by comparing with the grayscale correction value of the control group.

T2 sequence (Q9UKT9 whole entry): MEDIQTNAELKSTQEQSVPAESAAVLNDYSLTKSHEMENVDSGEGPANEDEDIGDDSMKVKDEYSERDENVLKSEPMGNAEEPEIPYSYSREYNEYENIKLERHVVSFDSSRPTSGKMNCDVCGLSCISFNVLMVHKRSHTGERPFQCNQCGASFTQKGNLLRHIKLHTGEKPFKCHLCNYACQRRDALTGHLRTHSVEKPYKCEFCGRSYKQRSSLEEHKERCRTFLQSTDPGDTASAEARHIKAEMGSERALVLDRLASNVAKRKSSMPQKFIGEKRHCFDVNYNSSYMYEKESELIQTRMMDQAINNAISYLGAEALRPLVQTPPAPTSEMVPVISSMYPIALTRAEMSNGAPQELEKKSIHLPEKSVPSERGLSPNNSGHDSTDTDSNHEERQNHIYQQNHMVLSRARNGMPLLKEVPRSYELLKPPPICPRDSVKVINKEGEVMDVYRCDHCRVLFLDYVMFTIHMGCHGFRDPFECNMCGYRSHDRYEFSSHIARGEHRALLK
T2 sequence (Q96SW2 whole entry): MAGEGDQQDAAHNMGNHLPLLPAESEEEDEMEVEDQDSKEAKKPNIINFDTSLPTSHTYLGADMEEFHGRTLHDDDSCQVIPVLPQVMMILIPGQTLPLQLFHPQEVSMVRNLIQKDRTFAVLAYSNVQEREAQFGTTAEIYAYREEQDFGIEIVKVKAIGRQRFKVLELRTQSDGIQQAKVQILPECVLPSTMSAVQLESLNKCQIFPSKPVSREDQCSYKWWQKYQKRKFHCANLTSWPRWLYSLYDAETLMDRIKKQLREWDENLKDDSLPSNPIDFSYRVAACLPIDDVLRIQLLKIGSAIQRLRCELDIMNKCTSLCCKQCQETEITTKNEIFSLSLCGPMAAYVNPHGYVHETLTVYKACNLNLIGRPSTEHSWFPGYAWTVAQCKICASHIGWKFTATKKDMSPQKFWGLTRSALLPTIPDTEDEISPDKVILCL
T2 sequence (Q16531 whole entry partner): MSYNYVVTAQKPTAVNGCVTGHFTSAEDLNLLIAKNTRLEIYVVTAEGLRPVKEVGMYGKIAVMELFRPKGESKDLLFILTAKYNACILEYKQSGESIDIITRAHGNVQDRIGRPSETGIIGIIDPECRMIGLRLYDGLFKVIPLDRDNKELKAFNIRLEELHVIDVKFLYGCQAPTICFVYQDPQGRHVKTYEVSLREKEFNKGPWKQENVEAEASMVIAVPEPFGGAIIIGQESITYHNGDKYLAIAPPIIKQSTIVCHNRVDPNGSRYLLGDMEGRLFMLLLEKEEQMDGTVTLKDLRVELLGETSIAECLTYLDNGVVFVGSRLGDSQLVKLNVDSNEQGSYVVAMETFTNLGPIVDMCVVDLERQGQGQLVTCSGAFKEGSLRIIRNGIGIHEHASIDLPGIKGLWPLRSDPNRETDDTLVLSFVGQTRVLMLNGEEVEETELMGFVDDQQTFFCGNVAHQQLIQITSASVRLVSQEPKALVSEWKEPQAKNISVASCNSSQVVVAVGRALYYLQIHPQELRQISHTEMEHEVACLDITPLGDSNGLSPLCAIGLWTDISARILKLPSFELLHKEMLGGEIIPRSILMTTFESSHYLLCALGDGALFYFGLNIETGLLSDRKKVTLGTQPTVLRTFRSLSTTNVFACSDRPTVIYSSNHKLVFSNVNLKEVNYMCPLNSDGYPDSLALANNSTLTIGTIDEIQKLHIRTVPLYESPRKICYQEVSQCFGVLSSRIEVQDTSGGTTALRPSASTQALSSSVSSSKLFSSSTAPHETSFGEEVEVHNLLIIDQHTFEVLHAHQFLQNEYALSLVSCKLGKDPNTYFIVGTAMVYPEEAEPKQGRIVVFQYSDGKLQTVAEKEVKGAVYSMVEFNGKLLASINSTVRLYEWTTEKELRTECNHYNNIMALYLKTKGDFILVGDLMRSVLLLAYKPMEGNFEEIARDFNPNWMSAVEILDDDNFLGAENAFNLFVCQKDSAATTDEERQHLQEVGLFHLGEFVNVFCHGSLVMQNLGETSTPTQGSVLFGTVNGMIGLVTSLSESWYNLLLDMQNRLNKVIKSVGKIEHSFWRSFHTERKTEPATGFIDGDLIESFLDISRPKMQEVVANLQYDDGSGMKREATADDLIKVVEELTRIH

## CC(C)(O)c1cc2nn(C3CCN(CCCC4CCN(c5ccc6c(c5)C(=O)N(C5CCC(=O)NC5=O)C6=O)CC4)CC3)cc2cc1NC(=O)c1cccc(C(F)(F)F)n1 (centres unmarked) [Example 6, N-(2-(1-(3-(1-(2-(2,6-dioxopiperidin-3-yl)-1,3-dioxoisoindolin-5-yl)piperidin-4-yl)propyl)piperidin-4-yl)-6-(2-hydroxyprop-2-yl)-2H-indazol-5-yl)-6-(trifluoromethyl) pyridinecarboxamide]
[1]; IRAK4 degradation in THP-1 cells, read-out: WB DC50
  DC50: 0.0119 µM
[1]; IRAK4 degradation in THP-1 cells, read-out: WB Dmax
  Dmax: 90.9%
[1]; degradation percentage of IRAK4 in THP-1 cells, compound 300 nM
  WB D(%) (300 nM): 89.5%
[1]; degradation percentage of IRAK4 in THP-1 cells, compound 1000 nM
  WB D(%) (1000 nM): 87.3%
[2]
  IKZF3 degradation rate (%): 8.4 ± 6.0%
